# Laboratory results taken from US20170305992A1, “NOVEL PEPTIDES AND COMBINATION OF PEPTIDES FOR USE IN IMMUNOTHERAPY AGAINST VARIOUS TUMORS” (IMMATICS BIOTECHNOLOGIES GMBH, priority 2015, published 2017).
# Tested on: CD8+ T cells
# Assay: In vitro T-cell priming assay with aAPCs loaded with peptide/MHC and anti-CD28, pMHC multimer readout (in vitro immunogenicity)
# Format: cell-based, human
# Conditions: HLA-A*02 restricted peptides, Table 6B
# Excerpt: In order to obtain information regarding the immunogenicity of the TUMAPs of the present invention, the inventors performed investigations using an in vitro T-cell priming assay based on repeated stimulations of CD8+ T cells with artificial antigen presenting cells (aAPCs) loaded with peptide/MHC complexes and anti-CD28 antibody.
# In order to perform in vitro stimulations by artificial antigen presenting cells loaded with peptide-MHC complex (pMHC) and anti-CD28 antibody, the inventors first isolated CD8+ T cells from fresh HLA-A*02 leukapheresis products via positive selection using CD8 microbeads (Miltenyi Biotec, Bergisch-Gladbach, Germany) of healthy donors obtained from the University clinics Mannheim, Germany, after informed consent. PBMCs and isolated CD8+ lymphocytes were incubated in T-cell medium (TCM) until use consisting of RPMI-Glutamax (Invitrogen, Karlsruhe, Germany) supplemented with 10% heat inactivated human AB serum (PAN-Biotech, Aidenbach, Germany), 100 U/ml Penicillin/100 μg/ml Streptomycin (Cambrex, Cologne, Germany), 1 mM sodium pyruvate (CC Pro, Oberdorla, Germany), 20 μg/ml Gentamycin (Cambrex). 2.5 ng/ml IL-7 (PromoCell, Heidelberg, Germany) and 10 U/ml IL-2 (Novartis Pharma, Nürnberg, Germany) were also added to the TCM at this step. Generation of pMHC/anti-CD28 coated beads, T-cell stimulations and readout was performed in a highly defined in vitro system using four different pMHC molecules per stimulation condition and 8 different pMHC molecules per readout condition.
# The purified co-stimulatory mouse IgG2a anti human CD28 Ab 9.3 (Jung et al., 1987) was chemically biotinylated using Sulfo-N-hydroxysuccinimidobiotin as recommended by the manufacturer (Perbio, Bonn, Germany). Beads used were 5.6 μm diameter streptavidin coated polystyrene particles (Bangs Laboratories, Ill., USA).
# pMHC used for positive and negative control stimulations were A*0201/MLA-001 (peptide […] (SEQ ID NO. 289) from modified Melan-A/MART-1) and A*0201/DDX5-001 ([…] from DDX5, SEQ ID NO. 290), respectively.
# 800.000 beads/200 μl were coated in 96-well plates in the presence of 4×12.5 ng different biotin-pMHC, washed and 600 ng biotin anti-CD28 were added subsequently in a volume of 200 μl. Stimulations were initiated in 96-well plates by co-incubating […] CD8+ T cells with 2×10^5 washed coated beads in 200 μl TCM supplemented with 5 ng/ml IL-12 (PromoCell) for 3 days at 37° C. Half of the medium was then exchanged by fresh TCM supplemented with 80 U/ml IL-2 and incubating was continued for 4 days at 37° C. This stimulation cycle was performed for a total of three times. For the pMHC multimer readout using 8 different pMHC molecules per condition, a two-dimensional combinatorial coding approach was used as previously described (Andersen et al., 2012) with minor modifications encompassing coupling to 5 different fluorochromes. Finally, multimeric analyses were performed by staining the cells with Live/dead near IR dye (Invitrogen, Karlsruhe, Germany), CD8-FITC antibody clone SK1 (BD, Heidelberg, Germany) and fluorescent pMHC multimers. For analysis, a BD LSRII SORP cytometer equipped with appropriate lasers and filters was used. Peptide specific cells were calculated as percentage of total CD8+ cells. Evaluation of multimeric analysis was done using the FlowJo software (Tree Star, Oreg., USA). In vitro priming of specific multimer+CD8+ lymphocytes was detected by comparing to negative control stimulations.
# Exemplary flow cytometry results after TUMAP-specific multimer staining for peptides of the invention are shown in FIG. 3 together with corresponding negative controls.
row,Substance,Wells positive [%]
1,236 (KMSELQTYV; listed as Homo sapiens) [compound 236],+ (<20% = +)
2,267 (YLLDMPLWYL; listed as Homo sapiens) [compound 267],+ (<20% = +)
3,261 (GLAALAVHL; listed as Homo sapiens) [compound 261],++ (20% - 49% = ++)
4,77 (ALYGNVQQV; listed as Homo sapiens) [compound 77],+ (<20% = +)
5,89 (SLAETIFIV; listed as Homo sapiens) [compound 89],+ (<20% = +)
6,157 (ILQDGQFLV; listed as Homo sapiens) [compound 157],+ (<20% = +)
7,11 (LLDPKTIFL; listed as Homo sapiens) [compound 11],++ (20% - 49% = ++)
8,9 (SLITGQDLLSV; listed as Homo sapiens) [compound 9],+ (<20% = +)
9,275 (AVPPPPSSV; listed as Homo sapiens) [compound 275],++ (20% - 49% = ++)
10,102 (GLYPVTLVGV; listed as Homo sapiens) [compound 102],+ (<20% = +)
11,101 (SLLEVNEASSV; listed as Homo sapiens) [compound 101],+ (<20% = +)
12,121 (ALYVQAPTV; listed as Homo sapiens) [compound 121],+ (<20% = +)
13,260 (ALNESLVEC; listed as Homo sapiens) [compound 260],+ (<20% = +)
14,4 (VLFGELPAL; listed as Homo sapiens) [compound 4],+ (<20% = +)
15,35 (VIIKGLEEI; listed as Homo sapiens) [compound 35],+ (<20% = +)
16,255 (FLMKNSDLYGA; listed as Homo sapiens) [compound 255],+ (<20% = +)
17,253 (KLLAVIHEL; listed as Homo sapiens) [compound 253],++ (20% - 49% = ++)
18,248 (VLMQDSRLYL; listed as Homo sapiens) [compound 248],++ (20% - 49% = ++)
19,14 (YTFSGDVQL; listed as Homo sapiens) [compound 14],+ (<20% = +)
20,7 (ALLQALMEL; listed as Homo sapiens) [compound 7],++ (20% - 49% = ++)

row,Substance,Wells positive [%]
1,166 (LLGDSSFFL; listed as Homo sapiens) [compound 166],++ (20% - 49% = ++)
2,27 (GLLGKVTSV; listed as Homo sapiens) [compound 27],+ (<20% = +)
3,29 (KMISAIPTL; listed as Homo sapiens) [compound 29],+ (<20% = +)
4,263 (SIIEYLPTL; listed as Homo sapiens) [compound 263],+ (<20% = +)
5,48 (KISDFGLATV; listed as Homo sapiens) [compound 48],++ (20% - 49% = ++)
6,246 (ALAGIVTNV; listed as Homo sapiens) [compound 246],+ (<20% = +)
7,17 (GLLPSAESIKL; listed as Homo sapiens) [compound 17],+ (<20% = +)
8,234 (VLLNEILEQV; listed as Homo sapiens) [compound 234],++ (20% - 49% = ++)
9,50 (ILLSVLHQL; listed as Homo sapiens) [compound 50],+ (<20% = +)
10,264 (TLHDQVHLL; listed as Homo sapiens) [compound 264],+ (<20% = +)
11,242 (KLQEEIPVL; listed as Homo sapiens) [compound 242],+ (<20% = +)
12,97 (KLFEKSTGL; listed as Homo sapiens) [compound 97],+ (<20% = +)
13,251 (LLWGNLPEI; listed as Homo sapiens) [compound 251],++ (20% - 49% = ++)
14,92 (RLFEEVLGV; listed as Homo sapiens) [compound 92],++ (20% - 49% = ++)
15,254 (ALGDKFLLRV; listed as Homo sapiens) [compound 254],+ (<20% = +)
16,66 (AMFPDTIPRV; listed as Homo sapiens) [compound 66],+ (<20% = +)
17,117 (TLLEGISRA; listed as Homo sapiens) [compound 117],++ (20% - 49% = ++)
18,233 (SLFESLEYL; listed as Homo sapiens) [compound 233],+ (<20% = +)
19,257 (KLIDHQGLYL; listed as Homo sapiens) [compound 257],+ (<20% = +)

# Same assay, conditions: percentage of positive donors; HLA class I peptides, Table 6A
row,Substance,in vitro immunogenicity: donors
1,288 (SLYKGLLSV; listed as Homo sapiens) [compound 288],++++ (> = 70% = ++++)
2,287 (KIQEILTQV; listed as Homo sapiens) [compound 287],+++ (50% - 69% = +++)

# Same assay, conditions: percentage of positive wells; HLA class I peptides, Table 6A
row,Substance,in vitro immunogenicity: wells
1,288 (SLYKGLLSV; listed as Homo sapiens) [compound 288],++ (21% - 49% = ++)
2,287 (KIQEILTQV; listed as Homo sapiens) [compound 287],+ (<20% = +)
